Consider nine compounds from patent publication US10899754B2, “Modulators of indoleamine 2,3-dioxygenase” (GLAXOSMITHKLINE INTELLECTUAL PROPERTY DEVELOPMENT LIMITED, priority 2016, dated 2021).

Holding throughout (assay type): cell-based
In data set [1] the target is T1, indoleamine 2, 3-dioxygenase (IDO1) (Homo sapiens, UniProt P14902). The experiment in a line: IDO1 HeLa RapidFire MS assay (kynurenine detection by mass spectrometry). More on the design: to induce the expression of indoleamine 2, 3-dioxygenase (IDO1). Particulars: HeLa cells, pIC50, read-out: IDO1_HELA_PXC50 (converted). A digest of the protocol: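 Compound potency reported as pIC50 from kynurenine/internal-standard ratio (RapidFire MS) in supernatant of IFN-γ-induced (10 nM) HeLa cells, 5,000 per well, after 2 days' treatment with 11-point dilutions. Cytotoxicity in the same format by luminescent ATP detection, reported as pCC50.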
T1 sequence (P14902 whole entry): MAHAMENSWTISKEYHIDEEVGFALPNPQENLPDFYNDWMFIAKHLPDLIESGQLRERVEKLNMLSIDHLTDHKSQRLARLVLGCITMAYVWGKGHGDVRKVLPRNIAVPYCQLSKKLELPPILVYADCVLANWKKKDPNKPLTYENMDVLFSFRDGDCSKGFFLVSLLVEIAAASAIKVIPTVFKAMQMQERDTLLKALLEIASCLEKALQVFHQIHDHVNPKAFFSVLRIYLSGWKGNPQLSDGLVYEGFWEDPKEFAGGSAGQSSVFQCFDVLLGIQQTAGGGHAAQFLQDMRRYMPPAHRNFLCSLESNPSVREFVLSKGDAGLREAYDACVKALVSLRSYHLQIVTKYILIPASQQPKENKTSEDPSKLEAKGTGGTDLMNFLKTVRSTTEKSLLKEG

Data set [2] deals with human peripheral blood mononuclear cells (PBMC). The experiment in a line: PBMC cytotoxicity assay (CellTiter-Glo). Particulars: 2 days, pCC50. A digest of the protocol:
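Human PBMC (50,000 cells/well) stimulated with IFN-γ 100 ng/ml and LPS 50 ng/ml were exposed to 11-point 3-fold compound dilutions for 2 days at 37 °C, 5% CO2. Viability read by CellTiter-Glo ATP luminescence and normalized to no-cell and stimulated-DMSO controls. XC50 derived by four-parameter fit.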
A general note: Cellular ATP, detected with luciferase, serves as a proxy for viable cell number.

The test system of data set [3] is human epithelial HeLa cells. Description: HeLa cytotoxicity assay (CellTiter-Glo). Particulars: pCC50. A digest of the protocol: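 HeLa cells (5,000/well) stimulated with 10 nM IFN-γ, exposed to 11-point 3-fold compound dilutions for 2 days at 37 °C; viability by CellTiter-Glo ATP luminescence. Normalized to cell-free (100% cytotoxicity) and stimulated-cell DMSO (0%) controls; four-parameter fit gives pCC50.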

The target of data set [4] is T1, indoleamine 2, 3-dioxygenase (IDO1). Description: IDO1 PBMC RapidFire MS assay (kynurenine detection by mass spectrometry). Particulars: human PBMC stimulated with IFN-γ and LPS, 2 days, pIC50, read-out: PBMC PXC50 (converted). More on the design: to induce the expression of indoleamine 2, 3-dioxygenase (IDO1); host or cells: human PBMC stimulated with IFN-gamma and LPS. A digest of the protocol: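 PBMCs (50,000 cells/well) stimulated with IFN-γ 100 ng/ml plus LPS 50 ng/ml, treated with 11-point 3-fold compound series for 2 days at 37° C. Supernatant kynurenine measured by RapidFire MS, normalised to internal standard; parallel cytotoxicity by CellTiter-Glo luminescence; curves fitted for XC50.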

On to `CC(C)CN(c1ccc(C(C)OCC(=O)O)cc1Nc1nc(Cl)ns1)C1CCCCC1` (stereo not drawn) [example 171, 2-(1-{3-[(3-chloro-1,2,4-thiadiazol-5-yl)amino]-4-[cyclohexyl(2-methylpropyl)amino]phenyl}ethoxy)acetic acid], for which the results for the IC50 in data set [1] and in data set [4] were 0.158 µM and 0.0251 µM, respectively. The “PBMC TOX PXC50” value in data set [2] is recorded as below 5. The HELA_IDO1_TOX_PXC50 in data set [3] is given as below 5.
Turning to `CC(C)CN(c1ccc(C(C)CC(=O)O)cc1Nc1nc(Cl)ns1)C1CCOCC1` (stereo not drawn) [Example 21, 3-(3-((3-chloro-1,2,4-thiadiazol-5-yl)amino)-4-(isobutyl(tetrahydro-2H-pyran-4-yl)amino)phenyl)butanoic Acid], the IC50 was 0.0316 µM in data set [1] and 0.00251 µM in data set [4]. Besides, the “PBMC TOX PXC50” value in data set [2] was 5.2. The same compound gave an HELA_IDO1_TOX_PXC50 in data set [3] below 5.
Take `CC(C)CN(CC(C)C)c1ccc([C@H](C)CC(=O)NS(C)(=O)=O)cc1Nc1nc(C(F)(F)F)ns1` [Example 109, (R)-3-(4-(diisobutylamino)-3-((3-(trifluoromethyl)-1,2,4-thiadiazol-5-yl)amino)phenyl)-N-(methylsulfonyl)butanamide]: the IC50 is 0.0316 µM in data set [1] and 0.01 µM in data set [4]. In addition, the “PBMC TOX PXC50” value in data set [2] is listed as below 5. In addition, the HELA_IDO1_TOX_PXC50 in data set [3] was below 5.
For `CC(C)CN(c1ccc([C@H](C)CC(=O)O)cc1Nc1cccc(Cl)n1)C1CCCCC1` [example 169, (3R)-3-{3-[(6-chloropyridin-2-yl)amino]-4-[cyclohexyl(2-methylpropyl)amino]phenyl}butanoic acid], the IC50 in data set [1] is 0.0251 µM; in data set [4], 0.00794 µM. Also, the “PBMC TOX PXC50” value in data set [2] is recorded as below 5. Further, the HELA_IDO1_TOX_PXC50 in data set [3] is below 5.
For the compound `CC[C@@H](CC(=O)O)c1ccc(N(CC(C)C)C2CCCCC2)c(Nc2nc(Cl)ns2)c1` [example 166, (3S)-3-{3-[(3-chloro-1,2,4-thiadiazol-5-yl)amino]-4-[cyclohexyl(2-methylpropyl)amino]phenyl}pentanoic acid], the IC50 in data set [1] is 0.01 µM; in data set [4], 0.000316 µM. Further, in data set [2], the “PBMC TOX PXC50” value is recorded as 5.1. For the same compound, the HELA_IDO1_TOX_PXC50 in data set [3] was below 5.
For `CC(C)CN(c1ccc(-c2ccccc2C(=O)O)cc1Nc1cccc(Cl)n1)C1CCCCC1` [example 266, 3′-[(6-chloropyridin-2-yl)amino]-4′-[cyclohexyl(2-methylpropyl)amino]-[1,1′-biphenyl]-2-carboxylic acid], in that order: 0.2 µM, 0.0631 µM, below 5 and below 5.
For `CC(C)CN(c1ccc(C(C)CC(=O)O)cc1NCc1ccc(F)c(F)c1)C1CCCCC1` (stereo not drawn) [example 162, 3-{4-[cyclohexyl(2-methylpropyl)amino]-3-{[(3,4-difluorophenyl)methyl]amino}phenyl}butanoic acid] the same measures were 1 µM, 0.398 µM, below 5 and below 5.
For `Cc1nc(C)c(Nc2cc(C(C)CC(=O)O)ccc2N(CC(C)C)CC(C)C)s1` (stereo not drawn) [example 139, 3-{4-[bis(2-methylpropyl)amino]-3-[(2,4-dimethyl-1,3-thiazol-5-yl)amino]phenyl}butanoic acid], in that order: above 10 µM, above 10 µM, below 5 and below 5.
Turning to `Cc1nnc(Nc2cc(-c3ccccc3C(=O)O)ccc2N(CC(C)C)CC(C)C)s1` [example 298, 4′-[bis(2-methylpropyl)amino]-3′-[(5-methyl-1,3,4-thiadiazol-2-yl)amino]-[1,1′-biphenyl]-2-carboxylic acid], the IC50 in data set [1] is 0.251 µM; in data set [4], 0.0398 µM. In addition, the “PBMC TOX PXC50” value in data set [2] is given as below 5. The compound also had an HELA_IDO1_TOX_PXC50 in data set [3] below 5.
